From patent US9999616B2 (ZENITH EPIGENETICS LTD., priority 2013, dated 2018)

Experiments:
Human AML MV-4-11 cells = test: Inhibition of cell proliferation in MV4-11 cells (CellTiter Aqueous One); format: cell-based; conditions: MV4-11, 72 h
Outline: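 MV4-11 cells, 5×10^4 per well in IMDM with 10% FBS, were exposed to increasing compound concentrations or 0.1% DMSO for 72 h at 37 °C in triplicate. Viability was read by MTS (CellTiter Aqueous One) absorbance at 490 nm after 3-4 h. IC50 was derived from background-corrected signal relative to DMSO.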

hIL-6 mRNA = test: Inhibition of hIL-6 mRNA transcription in LPS-stimulated U937 macrophages; format: cell-based, Human; conditions: Homo sapiens, U-937, PMA-differentiated U937 cells, 1 h pretreatment, LPS 3 h, read-out: IL-6 activity
Outline: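 PMA-differentiated U937 macrophages (60 ng/mL PMA, 3 days) pretreated 1 h with compound in 0.1% DMSO, then stimulated with 1 ug/mL E. coli LPS for 3 h at 37° C. IL-6 mRNA quantified by one-step TaqMan qRT-PCR, normalized to cyclophilin; fold expression relative to control, triplicate wells.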

[1] = tested on: c-myc in Human AML MV4-11 cells; test: Inhibition of cMYC expression (mRNA, real-time PCR) in MV4-11 cells; format: cell-based; conditions: 3 h treatment, cMYC mRNA by real-time PCR
Outline: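 MV4-11 cells in IMDM with 10% FBS were treated with increasing compound concentrations (DMSO 0.1%) for 3 h at 37 °C, in triplicate. Isolated mRNA was quantified by one-step TaqMan RT-qPCR, cMYC Ct normalized to cyclophilin, and fold expression given relative to DMSO control.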

MV4-11 cells = test: In vivo efficacy in athymic nude mouse acute myeloid leukemia xenograft model using MV4-11 cells; conditions: athymic nude mouse AML xenograft (MV4-11), oral dosing
Protocol: MV4-11 cells (ATCC) were grown under standard cell culture conditions and (NCr) nu/nu fisol strain of female mice age 6-7 weeks were injected with 5×10^6 cells/animal in 100 μL PBS+100 μL Matrigel in the lower left abdominal flank. By approximately day 18-21 after MV4-11 cells injection, mice were randomized based on tumor volume (L×W×H)/2) of average ˜100-300 mm^3. Mice were dosed orally with compound at 5 to 120 mg/kg b.i.d and/or q.d. on a continuous dosing schedule and at 2.5 to 85 mg/kg q.d. on a 5 day on 2 day off, 100 mg/kg q.d. on a 4 day on and 3 day off, 135 mg/kg q.d. on a 3 day on and 4 day off, 180 mg/kg on a 2 day on and 5 day off and 240 mg/kg on a 1 day on and 6 days off dosing schedules in EA006 formulation at 10 mL/kg body weight dose volume. Tumor measurements were taken with electronic micro calipers and body weights measured on alternate days beginning from dosing period. The average tumor volumes, percent Tumor Growth Inhibition (TGI) and % change in body weights were compared relative to Vehicle control animals. The means, statistical analysis and the comparison between groups were calculated using Student's t-test in Excel.

[2] = biological target: T1, Brd4 bromodomain 1 (BRD4(1)) (Homo sapiens, UniProt O60885); test: Inhibition of tetra-acetylated histone H4 binding to Brd4 bromodomain 1, measured by FRET (HTRF); set-up: made in house; host or cells: E. coli BL21(DE3); conditions: 2 h at room temperature
Outline: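 Inhibition was read as a drop in 665 nm relative to 620 nm HTRF signal after 2 h at room temperature, with IC50 from dose-response curves in duplicate wells. Reactions held 200 nM E. coli-expressed His-tagged bromodomain and 25-50 nM biotinylated tetra-acetylated histone H4 peptide. Buffer was 30 mM HEPES pH 7.4 with KF, CHAPS, BSA and 0.2% DMSO.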

hIL-17 mRNA = test: Inhibition of hIL-17 mRNA transcription in OKT3-stimulated peripheral blood mononuclear cells; format: cell-based; conditions: human PBMC, OKT3 stimulation 6 h, read-out: IL-17 Activity
Protocol: Human peripheral blood mononuclear cells were plated (2.0×10^5 cells per well) in a 96-well plate in 45 μL OpTimizer T Cell expansion media (Life Technologies) containing 20 ng/ml IL-2 and penicillin/streptomycin. The cells were treated with increasing concentrations of the test compound or DMSO (0.1%), and incubated at 37° C., 5% CO2 for 1 h before addition of 10× stock OKT3 antibody at 10 ug/ml in media. Triplicate wells were used for each concentration. Cells were incubated at 37° C., 5% CO2 for 6 h before the cells were harvested. At time of harvest, cells were pelleted by centrifugation at 800 rpm for 5 min. Cells were harvested using the mRNA Catcher PLUS kit according to manufacturer's instructions. The eluted mRNA was then used in a one-step quantitative real-time PCR reaction, using components of the RNA UltraSense™ One-Step Kit (Life Technologies) together with Applied Biosystems TaqMan® primer-probes for hIL-17 and Cyclophilin. Real-time PCR plates were run on a ViiA™7 real time PCR machine (Applied Biosystems), data was analyzed, normalizing the Ct values for hIL-17 to an internal control, prior to determining the fold induction of each unknown sample, relative to the control.

hApoA-1 mRNA = test: Up-regulation of hApoA-1 mRNA transcription in Huh7 cells; format: cell-based; conditions: Homo sapiens, Huh-7, EC170 of hApoA-1 mRNA up-regulation, 48 h, read-out: ApoA-1 activity
Protocol: Huh7 cells (2.5×10^5 per well) were plated in a 96-well plate using 100 μL DMEM per well, (Gibco DMEM supplemented with penicillin/streptomycin and 10% FBS), 72 h before the addition of the compound. The cells are treated with increasing concentrations of the compound or DMSO (0.1%), and incubated at 37° C., 5% CO2 for 48 h. Spent media was removed from the Huh-7 cells and placed on ice for immediate use with the “LDH cytotoxicity assay Kit II” from Abcam. The cells remaining in the plate were rinsed with 100 μL PBS. Cells were harvested using the mRNA Catcher PLUS kit according to manufacturer's instructions. The eluted mRNA was then used in a one-step quantitative real-time PCR reaction, using components of the RNA UltraSense™ One-Step Kit (Life Technologies) together with Applied Biosystems TaqMan® primer-probes for hApoA-1 and Cyclophilin. Real-time PCR plates were run on a ViiA™7 real time PCR machine (Applied Biosystems), data was analyzed, normalizing the Ct values for hApoA-1 to an internal control, prior to determining the fold induction of each unknown sample, relative to the control.

[3] = biological target: T1, Brd4 bromodomain 1 (BRD4(1)); test: Inhibition of tetra-acetylated histone H4 binding to Brd4 bromodomain 1, measured by FRET (HTRF); set-up: to Brd4 bromodomain 1 (BRD4(1) as Measured by FRET); made in house; host or cells: E. coli BL21(DE3); conditions: 2 h at room temperature
Protocol: Proteins were cloned and overexpressed with a N-terminal 6×His tag, then purified by nickel affinity followed by size exclusion chromatography. Briefly, E. coli BL21(DE3) cells were transformed with a recombinant expression vector encoding N-terminally Nickel affinity tagged bromodomains from Brd2, Brd3, Brd4. Cell cultures were incubated at 37° C. with shaking to the appropriate density and induced overnight with IPTG. The supernatant of lysed cells was loaded onto Ni-IDA column for purification. Eluted protein was pooled, concentrated and further purified by size exclusion chromatography. Fractions representing monomeric protein were pooled, concentrated, aliquoted, and frozen at −80° C. for use in subsequent experiments.
Binding of tetra-acetylated histone H4 and BET bromodomains was confirmed by a Homogenous Time Resolved Fluorescence Resonance Energy Transfer (HTRF®) method. […] After a 2 h incubation at room temperature, fluorescence was measured at 665 and 620 nm with a SynergyH4 plate reader (Biotek). The binding inhibitory activity was shown by a decrease in 665 nm relative to 620 nm fluorescence. IC50 values were determined from a dose response curve.

Work on Cc1ncccc1-c1cc(-c2c(C)noc2C)cc2[nH]cnc12 [Example Compound 27, 3,5-dimethyl-4-(4-(2-methylpyridin-3-yl)-1H-benzo[d]imidazol-6-yl)isoxazole] yielded an IC50 (Human AML MV-4-11 cells) of 300 to 3000 nM, an IC50 (hIL-6 mRNA) of no more than 300 nM and an IC50 [1] of 300 to 3000 nM. For the same compound, the In vivo activity (MV4-11 cells) was “Active”, the IC50 [2] was no more than 300 nM and the IC50 (hIL-17 mRNA) was no more than 300 nM.

With Cc1nc2c(-c3c(C)cncc3C)cc(-c3c(C)noc3C)cc2[nH]1 [Example Compound 97, 4-(4-(3,5-dimethyl-pyridin-4-yl)-2-methyl-1H-benzo[d]imidazol-6-yl)-3,5-dimethyl isoxazole] the IC50 (Human AML MV-4-11 cells) was 300 to 3000 nM, the IC50 (hIL-6 mRNA) was no more than 300 nM and the IC50 [1] was 300 to 3000 nM. For the same compound, the IC50 [2] was no more than 300 nM, the IC50 (hIL-17 mRNA) was 300 to 3000 nM and the EC170 (hApoA-1 mRNA) was no more than 0.3 µM.

In the case of Cc1nn(C)c(C)c1CNc1cc(-c2c(C)noc2C)cc2[nH]cnc12 [Example Compound 37, 6-(3,5-dimethyl-isoxazol-4-yl)-N-((1,3,5-trimethyl-1H-pyrazol-4-yl)methyl)-1H-benzo[d] imidazol-4-amine], the IC50 (Human AML MV-4-11 cells) is reported as 300 to 3000 nM, the IC50 (hIL-6 mRNA) is reported as 300 to 3000 nM and the IC50 [1] is reported as 300 to 3000 nM. The IC50 [2] was no more than 300 nM, the IC50 (hIL-17 mRNA) was 300 to 3000 nM and the EC170 (hApoA-1 mRNA) was no more than 0.3 µM.

With Cc1noc(C)c1-c1cc(NCc2ccccc2)c2nc[nH]c2c1 [Example Compound 4] the IC50 (Human AML MV-4-11 cells) was 300 to 3000 nM, the IC50 (hIL-6 mRNA) was 300 to 3000 nM and the IC50 [1] was 300 to 3000 nM. It also gave an IC50 [2] of no more than 300 nM, an IC50 (hIL-17 mRNA) of 300 to 3000 nM and an EC170 (hApoA-1 mRNA) of 3 to 30 µM.

In the case of Cc1ncccc1-c1cc(-c2c(C)noc2C)cc2cn[nH]c12 [Example Compound 70], the IC50 (Human AML MV-4-11 cells) is reported as 300 to 3000 nM, the IC50 (hIL-6 mRNA) is reported as 300 to 3000 nM and the IC50 [3] is reported as no more than 300 nM. The IC50 [1] was 300 to 3000 nM.

With Cc1noc(C)c1-c1cc(-c2cccc(C#N)c2C)c2nc[nH]c2c1 [Example Compound 57, 3-(6-(3,5-dimethyl-isoxazol-4-yl)-1H-benzo[d]imidazol-4-yl)-2-methyl-benzonitrile] the IC50 (Human AML MV-4-11 cells) was no more than 300 nM, the IC50 (hIL-6 mRNA) was no more than 300 nM and the IC50 [1] was no more than 300 nM. It also gave an IC50 [2] of no more than 300 nM, an IC50 (hIL-17 mRNA) of 300 to 3000 nM and an EC170 (hApoA-1 mRNA) of no more than 0.3 µM.

Work on Cc1noc(C)c1-c1cc(-c2c(C)nn(C)c2C)c2nc[nH]c2c1 [Example Compound 9, 3,5-dimethyl-4-(4-(1,3,5-trimethyl-1H-pyrazol-4-yl)-1H-benzo[d]imidazol-6-yl)isoxazole] yielded an IC50 (Human AML MV-4-11 cells) of 300 to 3000 nM, an IC50 (hIL-6 mRNA) of no more than 300 nM and an IC50 [1] of 300 to 3000 nM. The In vivo activity (MV4-11 cells) was “Active”, the IC50 [2] was no more than 300 nM and the IC50 (hIL-17 mRNA) was no more than 300 nM.
